The source of these data is patent US9227982B2 (NOVARTIS AG, priority 2011, dated 2016).

Assay [1] addresses human tankyrase 1 PARP catalytic domain, TNKS1P (Homo sapiens (Human), UniProt O95271). The assay is described as follows: TNKS1 autoparsylation enzymatic assay (LC/MS detection of nicotinamide). Format: biochemical. Particulars: 20 nM enzyme, 250 μM β-NAD+, 60 min, read-out: TNKS1 AP IC50. An excerpt:
(§1) The human tankyrase 1 PARP catalytic domain, TNKS1P, was cloned into a pDONR221 vector using the Invitrogen Gateway Technology. This entry clone was then subcloned into the destination vector pDEST20 to obtain the N-terminal Glutathione S-transferase (GST)-tagged fusion protein. GST-TNKS1P was then expressed in Sf21 cells using the Invitrogen baculovirus expression system (Invitrogen-Bac-to-Bac® Baculovirus Expression System, Version D). The protein was purified by a GSTrap column (GE Healthcare). The N-terminal GST-tagged tankyrase 2 protein PARP domain, TNKS2P, was cloned, expressed, and purified in a similar manner. Human PARP1 (Cat. No. 4668-100-01) and activated DNA (Cat. No. 4671-096-06) were purchased from Trevigen, Inc. PARP2 (Cat. No. ALX-201-064-C020) was purchased from Alexis Biochemical.
The % Inhibition was calculated as: (Control−Sample)/(Control−Background)*100. “Control” is the average value of 8 wells without compound; and “Background” is the average of 8 wells mixed with 5× quenching solution measured prior to initiation of the reaction.

A further assay deals with Axin2 protein. The assay is described as follows: Cellular ELISA assay of Axin2 protein stabilization in SW480 cells. Format: cell-based. To be noted: Homo sapiens, 24 hrs treatment, read-out: Axin AC50. The method, then:
Cellular ELISA Assay to Determine Compound Effect on Stabilizing the Axin2 Protein
Compound activity in stabilizing the Axin2 protein was measured by Sandwich Enzyme-Linked Immuosorbent (ELISA) assay in the colorectal cell line SW480. 30,000 SW480 cells were seeded per well in 96-well plate and incubated overnight prior to compound treatment. Cells were then treated with compounds in 6-point dilution starting at 10 μM for 24 hrs. Cells were then washed with 100 μL of cold Phosphate Buffer Saline (PBS), and lysed in 125 μl of cold 1× lysis buffer (Cell Signaling Technology, 9803) supplemented with Protease inhibitor (Roche, 11836170) and Phosphatase inhibitors (Sigma, P2850, P5726). For the ELISA assay, anti Axin-2 capture antibody (Strategic Diagnostics) antibody was diluted to a concentration of 1 μg/ml (1:1000) in Carbonate Coating buffer, pH 9.2 (Sigma, C3041-50CAP). 100μ of the diluted anti Axin-2 capture antibody per well was then used to coat the 96-well ELISA plate (Thermo Electron Corp., MicroLite 1 flat bottom plate #7571) overnight at 4° C. Plates were then washed three times with 300 of wash solution, PBST20 (PBS+0.05% Tween), and blocked with 300 μl/well 1% BSA/PBS (BSA, Millipore Probumin #82-045-1) for 1.5 hours at room temperature while shaking gently. After blocking, plates were then washed three times with 300 of wash solution. 100 μL of prepared SW480 cell lysate was then added to each well and incubated at room temperature for 2 hours while shaking gently. After washing, 100 μL of Biotinylated anti-Axin2 antibody (CST, 2151) was added to each well and incubated room temperature for 2 hours. 100 μL of Streptavidin-HRP (R&D systems, DY998) diluted 1:200 in 1% BSA/PBS was then added in each well and incubate for 30 mins at R/T in the dark.

Assay [2] has as its system Non-small lung cancer ABC-1 cells. The assay is described as follows: Cellular proliferation assay (CellTiter-Glo) in ABC-1 cells. Format: cell-based. To be noted: Homo sapiens, 72 h, 3 days of compound treatment. The method, then:
Cellular Proliferation Assay to Determine Compound Inhibition of Cancer Cell Growth
Non-small lung cancer ABC-1 cells were plated at 5000 cells per well in 96-well plates and treated with 8 serial compound dilutions starting from 10 μM as the highest concentration. Viable cells were measured after 3 days of compound treatment using the CellTiter-Glo assay (Promega, G7570). Assay was performed following the manufacture protocol.
For orientation: In ATP-based viability assays light output follows the ATP content of the culture.

Assay [3] has as its system Herpes Simplex Virus (HSV). Particulars: cited from earlier work.
A further assay addresses PARP2 (Mus musculus (Mouse), UniProt O88554). Briefly: PARP2 autoparsylation enzymatic assay (LC/MS detection of nicotinamide). Format: biochemical. To be noted: 20 nM enzyme, 250 μM β-NAD+, 60 min.
Text: as §1, with “manner.” for “manner. Human PARP1 (Cat. No. 4668-100-01) and activated DNA (Cat. No. 4671-096-06) were purchased from Trevigen, Inc. PARP2 (Cat. No. ALX-201-064-C020) was purchased from Alexis Biochemical.”
The autoparsylation activity of the TNKS 1/2 or PARP1/2 enzymes was measured by the liquid chromatography-mass spectrometry (LC/MS) detection of nicotinamide as readout. Compound activity in inhibiting the TNKS and PARP autoparsylation was evaluated by IC50 measurements. […] For the background control wells, 10 μL of the 5× quenching solution per well was added prior to the addition of β-NAD^+. The % Inhibition was calculated as: (Control−Sample)/(Control−Background)*100.

Chain of human tankyrase 1 PARP catalytic domain, TNKS1P (O95271 1112-1317): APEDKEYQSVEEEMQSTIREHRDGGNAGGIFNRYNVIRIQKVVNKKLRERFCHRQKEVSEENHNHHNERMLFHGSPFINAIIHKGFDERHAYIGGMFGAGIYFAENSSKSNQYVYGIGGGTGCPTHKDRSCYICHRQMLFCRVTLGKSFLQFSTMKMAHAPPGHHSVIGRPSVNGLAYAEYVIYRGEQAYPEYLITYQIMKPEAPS
Chain of PARP2 (O88554 whole entry): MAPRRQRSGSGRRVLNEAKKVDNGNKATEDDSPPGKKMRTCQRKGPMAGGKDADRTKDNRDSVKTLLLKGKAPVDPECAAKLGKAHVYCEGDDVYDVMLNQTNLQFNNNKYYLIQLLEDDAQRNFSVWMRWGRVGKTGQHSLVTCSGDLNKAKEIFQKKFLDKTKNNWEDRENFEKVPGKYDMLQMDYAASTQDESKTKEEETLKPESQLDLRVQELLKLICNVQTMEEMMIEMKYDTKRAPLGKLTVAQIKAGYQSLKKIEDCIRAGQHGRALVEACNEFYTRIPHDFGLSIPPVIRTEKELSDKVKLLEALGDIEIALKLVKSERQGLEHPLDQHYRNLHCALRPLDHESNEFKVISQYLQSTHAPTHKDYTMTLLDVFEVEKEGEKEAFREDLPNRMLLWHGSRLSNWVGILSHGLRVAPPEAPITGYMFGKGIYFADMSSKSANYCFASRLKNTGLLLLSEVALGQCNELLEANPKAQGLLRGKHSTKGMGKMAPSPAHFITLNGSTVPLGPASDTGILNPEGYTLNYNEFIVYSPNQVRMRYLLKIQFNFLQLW

Broadly, the IC50 is the concentration needed to halve the response being measured. The AC50 is the concentration at which the activity in the assay is half-maximal. On to `O=C(CCc1ccccc1)N(Cc1nc2c(c(=O)[nH]1)COCC2)Cc1cccs1` [Example 1], for which the IC50 in assay [1] is 1.15 ± 0.02 µM; in assay [2] it was greater than 10 µM. Also, the AC50 in the assay with Axin2 protein was greater than 10 µM.

On to `O=C(CCc1ccc(F)cc1)N(Cc1nc2c(c(=O)[nH]1)COCC2)Cc1cccs1` [Example 2, 3-(4-Fluoro-phenyl)-N-(4-oxo-3,5,7,8-tetrahydro-4H-pyrano[4,3-d]pyrimidin-2-ylmethyl)-N-thiophen-2-ylmethyl-propionamide], for which the results for the half-maximal inhibitory concentration (IC50) in assay [1] and in assay [2] were 0.299 ± 0.026 µM and greater than 10 µM, respectively. Besides, the AC50 with Axin2 protein was determined as 8.2 ± 0.3 µM.

Take `O=C(CCc1ccccc1F)N(Cc1nc2c(c(=O)[nH]1)COCC2)Cc1cccs1` [Example 4, 3-(2-Fluoro-phenyl)-N-(4-oxo-3,5,7,8-tetrahydro-4H-pyrano[4,3-d]pyrimidin-2-ylmethyl)-N-thiophen-2-ylmethyl-propionamide]: the concentration for half-maximal inhibition (IC50) in assay [1] came out at 0.271 ± 0.045 µM; in assay [2], 8.74 µM. Moreover, the concentration at half-maximal activity (AC50) in the assay with Axin2 protein was 4.1 ± 2.1 µM.

With `O=C(CCc1cccc(O)c1)N(Cc1nc2c(c(=O)[nH]1)COCC2)Cc1cccs1` [Example 7, 3-(3-Hydroxy-phenyl)-N-(4-oxo-3,5,7,8-tetrahydro-4H-pyrano[4,3-d]pyrimidin-2-ylmethyl)-N-thiophen-2-ylmethyl-propionamide], the IC50 in assay [1] was 1.02 ± 0.003 µM; in assay [2] it was greater than 10 µM. Further, in the assay with Axin2 protein, the concentration at half-maximal activity (AC50) was greater than 10 µM.

As to `Oc1nc(-c2ccc(C(F)(F)F)cc2)nc2c1CSCC2` [XAV939], in assay [3], the HSV viral growth result is given as “decreased viral growth” and the “HSV viral protein expression” value is given as “suppressed HSV viral protein expression”.

In the case of “N-((4-0xo-4,5,7,8-tetrahydro-3H-pyrano[4,3-d]pyrimidin-2-yl)methyl)-3-phenyl-N-(thiophen-3-ylmethyl)propanamide [Example 18]”, the values for the IC50 (in assay [1]; against PARP2) were 5.17 ± 0.46 µM and 10.4 ± 0.8 µM, respectively.
